Measurements reported in patent US7858658B2, “Fluoro- and trifluoroalkyl-containing heterocyclic sulfonamide inhibitors of beta amyloid production and derivatives thereof” (Wyeth LLC, priority 2003, dated 2010).
pEC50: −log10 of the molar value. “And” between values parts separate entries of the source, which are not always exact repeats. Identical values can stand only once.

How the values were obtained:
[1] = system: amyloid precursor protein (APP) proteolysis; test: Repressor Release Assay (RRA); format: cell-based; details: all compounds tested at 20 μg/mL; for fold induction at 20 µg/mL: read-out: RRA data: fold increase of APPI (luciferase activity over diluent control)
Method: The beta amyloid inhibitory activity of many of the compounds of the present invention has been determined using the Repressor Release Assay (RRA). See, Table 5 below. A compound is considered active in RRA if it leads to at least a 1.5 fold increase in luciferase activity at 20 μg/mL and is non-toxic.
The compounds generated as described in the Examples above are tested in the RRA in accordance with published techniques [Shuey, D. J., Sheiffele, P., Jones, D., Cockett, M. I., and Quinet, E. M. (1999), “Repressor release: a useful tool for monitoring amyloid precursor protein (APP) proteolysis in mammalian cells”, Society for Neuroscience Abstracts, Vol. 25, 29th Annual Meeting of Society for Neuroscience, Miami Beach, Fla., Oct. 23-28, 1999]. Briefly, this assay is performed as follows.
CHO-K1 cells are cultured in whole DMEM media (DMEM—High Glucose with 10% fetal bovine serum, 1% Non-essential Amino Acids, and 1% Penicillin-Streptomycin) at 37° C. with 5% CO2. Two million cells are plated into 10-cm dishes 24 hrs prior to transfection.
Transient transfections are completed as recommended by Gibco BRL using their Lipofectamine Plus® system. First, 6 μg of pRSVO-luc and 6 μg of APP-lacI construct DNA are added to 460 μL Opti-Mem transfection media and incubated with the 30 μL Plus® reagent for 15 minutes. Then, a lipid mixture of 40 μL Lipofectamine Plus® reagent and 460 μL Opti-Mem transfection media is incubated with the DNA-Plus reagent mixture for 15 minutes. During the DNA-lipid incubation, the CHO-K1 cells are washed once and covered in 5.0 mL DMEM media without Penicillin-Streptomycin. The DNA-lipid preparation is then layered onto these cells and incubated at 37° C. overnight.
One and one half million transfected cells per well (100 μL total volume) are plated into sterile, opaque Packard 96-well Cultur-Plates™ in clear DMEM whole media (DMEM—without phenol red) and incubated at 37° C. with 5% CO2 for 3-5 hours.
Compounds are diluted using two different protocols; one protocol is used for compounds supplied neat (weighed powder in vial) and the other protocol is used for compounds supplied in solution (20 mM in DMSO in 96-well plates). For both protocols, 25 mM Hepes and 25 mM Hepes/1% DMSO are prepared fresh to be used as diluent. The Hepes/DMSO is used as the diluent control on all experimental plates.
The following table depicts the steps for compound dilution (please note that the last step is the addition of compound to cells/media in tissue culture plate):
Because some compounds arrive in 96-well format at 20 mM, the following represents the protocol for their dilution (note that an average molecular weight of these compounds was used to calculate these dilutions and as above, the last step is the addition of compound to cells/media in tissue culture plate):
Once compounds are diluted, they are applied in duplicate on cells in tissue culture plates (prepared above). Cells are incubated with compound at 37° C. with 5% CO2 for an additional 36-48 hours.
Luciferase assays (the LucLite® reagent, Packard) are performed and are read on a Packard TopCount® instrument. Media is removed from each 96-well plate and replaced with 100 μL PBS per well (with Mg^2+ and Ca^2+). An equal volume (100 μL) of the LucLite® lysis/substrate buffer is added to each well and the plates are sealed and mixed in the dark on a rotary shaker for about 15 to about 30 minutes at room temperature. Luciferase readings are then taken on the TopCount® instrument. Measurements are expressed as relative light units (RLU) and are calculated and analyzed in the MS Excel® program as follows.
A compound is considered active in RRA if it leads to at least a 1.5 fold increase in luciferase activity at 20 μg/mL and is non-toxic, as determined by loss of signal (≦0.75 fold increase). Fold increase is the amount of luciferase activity (measured in relative light units) over diluent control. SEM represents the standard error of the mean for fold increase (not shown).

[2] = mouse, microsomes
[3] = system: beta amyloid 40; test: Aβ40/42 ELISA Assay, Aβ40; format: cell-based; details: CHO cells carrying the APP-REP-NL plasmid, 22 hours
Method: (§1) Compounds are diluted from DMSO stocks to 2 μM and below in a cell culture medium. Compounds are then applied to CHO cells carrying the APP-REP-NL plasmid [Sudhir et. al, J. Biolog. Chem. 267:25602-25608 (1992)] for a period of 22 hours. After the conditioning period, medium is collected, diluted in assay buffer containing protein, and samples, controls, and synthetic peptide standards are incubated on a prepared ELISA plate. Using a sandwich ELISA with antibodies specifically directed against the carboxyl terminus of beta amyloid 40 or 42 [analogous to the method reported by Haugabook et al., J. Neurosci. Methods 108:171-179 (2001) but using goat anti-mouse IgG1 (source: Southern Biotech) as the anchor, 6E10 as the capture antibody (Source: SENETEK), rabbit antiAβ40 and antiAβ42 (source: QCB) and APL-donkey anti-rabbit IgG (H+L, source: Southern Biotech) as the detection antibody], the effect of the compound treatment on the cellular production of extracellular beta amyloid is quantified. Cells treated with compound are subsequently incubated in cell culture medium containing […]. After a short incubation period, MTS/medium containing plates are read in a spectrophotometer to determine the extent to which compound toxicity affected the cell's metabolism and ability to synthesize beta amyloid. […]

[4] = system: beta amyloid 42; test: Aβ40/42 ELISA Assay, Aβ42; format: cell-based; details: CHO cells carrying the APP-REP-NL plasmid, 22 hours
Method: as §1

[5] = in vitro; details: rat, microsomes
[6] = Phase 1 and 2 dog liver microsome metabolism; format: in vitro ADME; details: liver microsomes, read-out: half-life (metabolic stability)
[7] = Phase 1 and 2 mouse liver microsome metabolism; format: in vitro ADME; details: liver microsomes, read-out: half-life (metabolic stability)
[8] = Phase 1 and 2 human liver microsome metabolism; format: in vitro ADME; details: liver microsomes, read-out: half-life (metabolic stability)
[9] = Phase 1 and 2 rat liver microsome metabolism; format: in vitro ADME; details: liver microsomes, read-out: half-life (metabolic stability)

| RRA data: fold increase of APPI (luciferase activity over diluent control) [1] | Compound | fold induction at 20 µg/mL [1] | also measured |
| --- | --- | --- | --- |
| – | O=S(=O)(NC(CO)CC(F)(F)F)c1ccc(Cl)s1 (stereo not shown) [Example 40, 5-chloro-(3,3,3-trifluoro-1-hydroxymethyl-propyl)-thiophene-2-sulfonamide] | 3.8 | – |
| – | CC(=O)[C@@H](NS(=O)(=O)c1ccc(Cl)s1)[C@H](C)CC(F)(F)F [Example 17, N-[(1S,2R)-1-Acetyl-4,4,4-trifluoro-2-methylbutyl]-5-chlorothiophene-2-sulfonamide] | 3.6 | – |
| – | C[C@H](CC(F)(F)F)[C@@H](C=O)NS(=O)(=O)c1ccc(Cl)s1 [Example 16, 5-Chloro-N-[(1S,2R)-4,4,4-trifluoro-1-formyl-2-methylbutyl]thiophene-2-sulfonamide] | 3.9 | – |
| 4.3 fold increase | CC[C@H](CC(F)(F)F)[C@H](NS(=O)(=O)c1ccc(Cl)s1)C(C)O (stereo partly drawn) [Example 3, 5′-Chloro-N-[(1S,2R)-2-ethyl, 4,4,4-trifluoro-1-(1-hydroxyethyl)butyl]thiophene-2′-sulfonamide] | – | – |
| – | C[C@@H](CC(F)(F)F)[C@@H](CO)NS(=O)(=O)c1ccc(Cl)s1 [Example 10, 5-Chloro-N-[(1S,2S)-4,4,4-trifluoro-1-(hydroxymethyl)-2-methylbutyl]thiophene-2-sulfonamide] | 5.2 | melting point: 99 to 100 °C |
| – | C[C@H](CC(F)(F)F)[C@H](NS(=O)(=O)c1ccc(Cl)s1)C(C)(C)O [Example 18, 5-Chloro-N-[(1S,2R)-4,4,4-trifluoro-1-(1-hydroxy-1-methylethyl)-2-methylbutyl]thiophene-2-sulfonamide] | 2.9 | – |
| – | C[C@H](O)[C@@H](NS(=O)(=O)c1ccc(Cl)s1)[C@H](C)CC(F)(F)F [Example 8, 5-Chloro-N-{(1S,2R)-4,4,4-trifluoro-1-[(1S)-1-hydroxyethyl]-2-methylbutyl}thiophene-2-sulfonamide] | 2.8 | – |
| 4.2 fold increase | CC[C@@H](CC(F)(F)F)[C@@H](CO)NS(=O)(=O)c1sc2ccc(Cl)cc2c1C [Example 11, (2S,3S)-2-(5-Chloro-3-methylbenzo[b]thiophene-2-sulfonyl)-amido-5,5,5-trifluoro-3-ethyl-pentan-1-ol] | – | – |
| – | CC[C@@H](CC(F)(F)F)[C@H](CO)NS(=O)(=O)c1ccc(Cl)s1 [Example 6, 5-Chloro-N-[(1R,2S)-2-ethyl-4,4,4-trifluoro-1-(hydroxymethyl)butyl]thiophene-2-sulfonamide] | 4.2 | – |
| – | O=S(=O)(NC(CO)C1CC2C(C1)C2(F)F)c1ccc(Cl)s1 (stereo not shown) [Example 15, 5-Chloro-N-[1-(6,6-difluorobicyclo[3.1.0]hex-3-yl)-2-hydroxyethyl]thiophene-2-sulfonamide] | 4.7 | – |
| – | O=S(=O)(NC(CO)C1CCC(F)(F)CC1)c1ccc(Cl)s1 (stereo not shown) [Example 14, 5-Chloro-N-[1-(4,4-difluorocyclohexyl)-2-hydroxyethyl]thiophene-2-sulfonamide] | 6.2 | – |
| – | O=S(=O)(NC(CO)CCC(F)(F)F)c1ccc(Cl)s1 (stereo not shown) [Example 7, 5-Chloro-N-[4,4,4-trifluoro-1-(hydroxymethyl)butyl]thiophene-2-sulfonamide] | 3.9 | – |
| 1.6 fold increase | Cc1nn(C)c(Cl)c1S(=O)(=O)N[C@H](CO)[C@H](CC(F)(F)F)c1ccccc1 [Example 12, (2S,3R)-2-(5-Chloro-1,3-dimethyl-1H-pyrazole-4-sulfonyl)-amido-5,5,5-trifluoro-3-phenyl-pentan-1-ol] | – | – |
| 3.8 fold increase | O=S(=O)(N[C@H](CO)C(C(F)(F)F)C(F)(F)F)c1ccc(Cl)s1 [Example 5, 5′-Chloro-N-[3,3,3-trifluoro-2-(trifluoromethyl)-1-S-(hydroxymethyl)propyl]thiophene-2′-sulfonamide] | – | half-life (metabolic stability) [2]: 46 min |
| – | CC[C@H](CC(F)(F)F)[C@@H](CO)NS(=O)(=O)c1ccc(Cl)s1 [Example 2, 5-Chloro-N-[(1S,2R)-2-ethyl-4,4,4-trifluoro-1-(hydroxymethyl)butyl]thiophene-2-sulfonamide] | 5.4 | melting point: 128 to 129 °C |
| 18.5-28.1 fold increase | C[C@H](NC(=O)Cc1cc(F)cc(F)c1)C(=O)N[C@H](C(=O)OC(C)(C)C)c1ccccc1 [DAPT] | – | pEC50 [3]: 6.77; pEC50 [4]: 6.89 |
| – | C[C@H](CC(F)(F)F)[C@@H](CO)NS(=O)(=O)c1ccc(Cl)s1 [Example 1, 5-Chloro-N-[(1S,2R)-4,4,4-trifluoro-1-(hydroxymethyl)-2-methylbutyl]thiophene-2-sulfonamide] | 3.2 | half-life [5]: ~193 min; half-life [6]: 31 min; half-life [7]: 10 min; half-life [8]: 22 min; melting point: 132 to 133 °C and 136 to 137 °C; half-life [9]: 14 min |
| – | C[C@H](CC(F)(F)F)[C@H](NS(=O)(=O)c1ccc(Cl)s1)[C@@H](C)O [Example 9, 5-Chloro-N-{(1S,2R)-4,4,4-trifluoro-1-[(1R)-1-hydroxyethyl]-2-methylbutyl}thiophene-2-sulfonamide] | 2.8 | – |
| – | C[C@@H](O)[C@@H](NS(=O)(=O)c1ccc(Cl)s1)C(C(F)(F)F)C(F)(F)F [Example 41, 5-Chloro-N-[(1S)-3,3,3-trifluoro-1-[(1R)-1-hydroxyethyl]-2-(trifluoromethyl)propyl]thiophene-2-sulfonamide] | 6.2 | – |

| Compound | RRA data: fold increase of APPI (luciferase activity over diluent control) [1] | fold induction at 20 µg/mL [1] | also measured |
| --- | --- | --- | --- |
| O=S(=O)(NC(CO)C(C(F)(F)F)C(F)(F)F)c1ccc(Cl)s1 (stereo not shown) [Example 4, 5′-Chloro-N-[3,3,3-trifluoro-2-(trifluoromethyl)-1-(hydroxymethyl)propyl]thiophene-2′-sulfonamide] | 3.7 fold increase | – | – |
